# Measured values from patent EP1123702A1, “ANALGESICS” (Eisai Co., Ltd., priority 1998, dated 2000).
# Structures can show the parent of a compound that is named as a salt.
# Tests used:
# writhing behavior = experiment: Analgesic action by a writhing method using acetic acid; type: in vivo, Male mice of a ddY strain; settings: sc; statistically minimum effective dose; 0.6% acetic acid ip 15 minutes after the drug, writhing counted for ten minutes; mice
# [1] = Muscle relaxing action (in vivo); settings: method of JP98/01481 or JP-A 10-281752
# From the text: There are also shown a serotonin (5HT) receptor binding action (RBA; in vitro) and a muscle relaxing action (in vivo) measured according to a method described in JP98/01481 or JP-A 10-281752. (In the table, "n.t." means "not tested").
# 5HT1A = molecular target: T1, 5HT1A (Homo sapiens, UniProt P08908); experiment: Serotonin (5HT) receptor binding action (RBA; in vitro), 5HT1A; settings: method of JP98/01481 or JP-A 10-281752
# T1 sequence (P08908 1-422): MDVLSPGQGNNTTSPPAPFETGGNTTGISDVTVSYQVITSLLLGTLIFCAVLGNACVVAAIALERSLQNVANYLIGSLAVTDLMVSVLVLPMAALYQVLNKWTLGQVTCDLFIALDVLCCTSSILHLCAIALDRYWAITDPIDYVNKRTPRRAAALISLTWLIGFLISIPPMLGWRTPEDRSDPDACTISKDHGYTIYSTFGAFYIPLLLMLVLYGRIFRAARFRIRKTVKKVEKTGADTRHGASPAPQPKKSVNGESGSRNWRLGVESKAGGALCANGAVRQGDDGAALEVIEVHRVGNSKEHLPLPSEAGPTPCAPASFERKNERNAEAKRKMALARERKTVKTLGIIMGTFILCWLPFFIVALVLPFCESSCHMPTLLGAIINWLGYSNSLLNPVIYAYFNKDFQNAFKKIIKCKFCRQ
# 5HT2 = 5HT2 (Homo sapiens, UniProt P28223); experiment: Serotonin (5HT) receptor binding action (RBA; in vitro), 5HT2; settings: method of JP98/01481 or JP-A 10-281752
# Sequence of 5HT2 (P28223 whole entry, species assumed): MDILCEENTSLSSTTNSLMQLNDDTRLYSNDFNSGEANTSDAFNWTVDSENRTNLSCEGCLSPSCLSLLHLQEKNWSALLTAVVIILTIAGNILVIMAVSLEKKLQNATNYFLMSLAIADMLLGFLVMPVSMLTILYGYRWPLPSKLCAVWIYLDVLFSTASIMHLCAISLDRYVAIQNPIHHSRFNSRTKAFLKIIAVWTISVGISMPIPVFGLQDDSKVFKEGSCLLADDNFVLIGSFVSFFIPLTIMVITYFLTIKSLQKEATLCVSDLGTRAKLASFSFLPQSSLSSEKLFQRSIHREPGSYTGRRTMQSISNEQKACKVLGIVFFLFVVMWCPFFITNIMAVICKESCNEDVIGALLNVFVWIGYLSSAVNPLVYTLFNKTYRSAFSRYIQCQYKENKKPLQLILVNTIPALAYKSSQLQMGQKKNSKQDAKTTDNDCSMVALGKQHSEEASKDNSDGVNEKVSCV
Structure (SMILES),Analgesic Action (minimum effective dose) (writhing behavior) [mg/kg],Muscle-Relaxing Action (ip) [1],Muscle-Relaxing Action (po) [1],Ki (5HT1A) [nM],Ki (5HT2) [nM]
"CC(=O)NCc1ccc2ccn(C3CCN(CCc4ccc(F)cc4)CC3)c2c1 [(1), 1-[1-(4-Fluorophenethyl)piperidin-4-yl]-6-(N-acetylaminomethyl)indole]",0.3,0.3 mg/kg,1 mg/kg,0.51,1.38
"CCC(=O)NCc1ccc2ccn(C3CCN(CCc4ccc(F)cc4)CC3)c2c1 [(2), 1-[1-(4-fluorophenethyl)piperidin-4-yl]-6-(N-propionylaminomethyl)indole]",3,0.3 mg/kg,3 mg/kg,1,2.6
"COc1ccc(CCN2CCC(n3ccc4ccc(CNC(C)=O)cc43)CC2)cc1 [(3), 1-[1-(4-methoxyphenethyl)piperidin-4-yl]-6-(N-acetylaminomethyl)indole]",10,–,–,0.27,> 20
"CC(=O)NCc1ccc2ccn(C3CCN(CCc4ccccc4F)CC3)c2c1 [(4), 1-[1-(2-fluorophenethyl)piperidin-4-yl]-6-(N-acetylaminomethyl)indole]",3,–,10 mg/kg,1.58,0.75
"O=C(Cc1ccc2ccn(C3CCN(CCc4ccc(F)cc4)CC3)c2c1)NCCO [(6), 1-[1-(4-fluorophenethyl)piperidin-4-yl]-6-(N-hydroxyethylamidemethyl)indole]",> 10,–,10 mg/kg,–,–
"CN(C)C(=O)Cc1ccc2ccn(C3CCN(CCc4ccc(F)cc4)CC3)c2c1 [(7), 1-[1-(4-fluorophenethyl)piperidin-4-yl]-6-(N,N-dimethylamidemethyl)indole oxalate]",> 10,–,–,–,–
"NC(=O)Cc1ccc2ccn(C3CCN(CCc4ccc(F)cc4)CC3)c2c1 [(8), 1-[1-(4-fluorophenethyl)piperidin-4-yl]-6-amidemethylindole]",> 3,–,3 mg/kg,–,–
"CNC(=O)Cc1ccc2ccn(C3CCN(CCc4ccc(F)cc4)CC3)c2c1 [(9), 1-[1-(4-fluorophenethyl)piperidin-4-yl]-6-(N-methylamidemethyl)indole]",1,0.3 mg/kg,3 mg/kg,–,–
"CNC(=O)Cc1ccc2ccn(C3CCN(CCc4ccccc4F)CC3)c2c1 [(10), 1-[1-(2-fluorophenethyl)piperidin-4-yl]-6-(N-methylamidemethyl)indole]",3,3 mg/kg,< 1 mg/kg,4.02,1.23
"CCNC(=O)Cc1ccc2ccn(C3CCN(CCc4ccccc4F)CC3)c2c1 [(11), 1-[1-(2-fluorophenethyl)piperidin-4-yl]-6-(N-ethylamidemethyl)indole]",3,–,10 mg/kg,–,–
"O=C(Cc1ccc2ccn(C3CCN(CCc4ccccc4F)CC3)c2c1)NCCO [(12), 1-[1-(2-fluorophenethyl)piperidin-4-yl]-6-(N-hydroxyethylamidemethyl)indole]",10,–,> 10 mg/kg,–,–
"NC(=O)Cc1ccc2ccn(C3CCN(CCc4ccccc4F)CC3)c2c1 [(13), 1-[1-(2-fluorophenethyl)piperidin-4-yl]-6-amidemethylindole]",3,1 mg/kg,3 mg/kg,0.59,2.81
"CC(=O)NCc1ccc2c(c1)N(C1CCN(CCc3ccc(F)cc3)CC1)CC2 [(14), 1-[1-(4-fluorophenethyl)piperidin-4-yl]-6-(N-acetylaminomethyl)indoline]",0.3,0.3 mg/kg,0.3 mg/kg,6.43,0.43
"CCN1CCN(c2nc(-c3ccc(OC)cc3)cc3ccccc23)CC1 [(15), 1-(4-ethylpiperazin-1-yl)-3-(4-methoxyphenyl)isoquinoline]",3,–,–,59.9,11.1
"CCN1CCN(c2nc(-c3ccc(OCCO)cc3)cc3ccccc23)CC1 [(16), 1-(4-ethylpiperazin-1-yl)-3-(4-hydroxyethoxyphenyl)isoquinoline]",1,1 mg/kg,3 mg/kg,31.5,4.2
"CCC(O)c1ccc(-c2cc3ccccc3c(N3CCN(CC)CC3)n2)cc1 (stereo not drawn) [(17), 1-(4-ethylpiperazin-1-yl)-3-[4-(1-hydroxypropyl)phenyl]isoquinoline]",1,1 mg/kg,10 mg/kg,6.9,1.6
"CCCNC(=O)c1ccc(-c2cc3ccccc3c(N3CCN(CC)CC3)n2)cc1 [(18), 1-(4-ethylpiperazin-1-yl) -3-[4-(N-propylamide)phenyl]isoquinoline hydrochloride]",1,> 10 mg/kg,3 mg/kg,14.6,1.1
"CCN1CCN(c2nc(-c3ccc(CCC(C)(C)O)c(F)c3)cc3ccccc23)CC1.Cl [(19), 1-(4-ethylpiperazin-1-yl)-3-[3-fluoro-4-(3-hydroxy-3-methylbutyl)phenyl]isoquinoline hydrochloride]",1,< 10 mg/kg,3 mg/kg,31.2,0.7
"CCN1CCN(c2nc(-c3ccc(CCCO)c(OC)c3)cc3ccccc23)CC1.Cl [(20), 1-(4-ethylpiperazin-1-yl)-3-(3-methoxy-4-hydroxypropylphenyl)isoquinoline hydrochloride]",3,–,10 mg/kg,7.9,10.9
"CCN1CCN(c2nc(-c3ccc(OCCO)c(C#N)c3)cc3ccccc23)CC1.Cl [(21), 1-(4-ethylpiperazin-1-yl)-3-(3-cyano-4-hydroxyethoxyphenyl)isoquinoline hydrochloride]",1,10 mg/kg,–,13.4,4.5
"CCN1CCN(c2nc(-c3cccc(CCCO)c3)cc3ccccc23)CC1 [(22), 1-(4-ethylpiperazin-1-yl)-3-(3-hydroxypropylphenyl)isoquinoline hydrochloride]",3,–,–,54.5,17.4
"CCCS(=O)(=O)NCc1ccc(-c2cc3ccccc3c(N3CCN(CC)CC3)n2)cc1Cl.Cl [(23), 1-(4-ethylpiperazin-1-yl)-3-(3-chloro-4-propylsulfonylaminomethylphenyl)isoquinoline hydrochloride]",3,–,> 30 mg/kg,0.9,0.7
"CCN1CCN(c2nc(-c3ccc(OCC(C)O)cc3)cc3sccc23)CC1.Cl (stereo not drawn) [(24), 4-(4-ethylpiperazin-1-yl)-6-[4-(2-hydroxypropoxy)phenyl]thieno[3,2-c]pyridine hydrochloride]",1,1 mg/kg,3 mg/kg,27.9,0.9
"CC(C)(O)COc1ccc(-c2cc3sccc3c(N3CCN(CCO)CC3)n2)cc1.Cl [(27), 4-(4-hydroxyethylpiperazin-1-yl)-6-[4-(2-hydroxy-2-methylpropoxy)phenyl]thieno[3,2-c]pyridine hydrochloride]",1,–,–,1530,0.35
"COc1cccc(C(O)C2CCN(CCc3ccc(F)cc3)CC2)c1OC (stereo not drawn) [MDL-100,907, reference compound]",3,0.3 mg/kg,1 mg/kg,–,–
"CN1CC[C@]23c4c5ccc(O)c4O[C@H]2[C@@H](O)C=C[C@H]3[C@H]1C5.Cl [Morphine Hydrochloride, morphine hydrochloride, reference compound]",1,Ineffective (Strain Induced),Ineffective (Strain Induced),–,–
"COc1ccccc1N1CCN(CCN(C(=O)C2CCCCC2)c2ccccn2)CC1 [WAY-100,635, reference compound]",3,> 10 mg/kg,–,–,> 200
